# Laboratory results from patent publication US12686667B2, “Methods and compositions for gamma-glutamyl cycle modulation” (CANCER RESEARCH TECHNOLOGIES LLC, priority 2013, dated 2026).
# Columns and labels:
# [1] = test system: lung CA CRL5891; assay: Survival of nude mice inoculated with human lung cancer; type: in vivo, athymic nude mice; conditions: for survival of treated group: nude male mice, 400 rads, lung CA CRL5891, 100 mg/kg I.P. every day, six days a week, followed up for 120 days, control: eight of ten died
# Description: In order to examine survival of athymic nude mice inoculated intravenously with tumors, one group of the inoculated mice was treated with racemic BA-GGCI, and a second group of the inoculated mice were treated with placebo, and the effects of treatment with BA-GGCI and placebo were compared.
# Two subgroups of nude male mice where examined: A control group and an experimental group. The groups included twenty athymic nude mice (ten control and ten experimental) subjects, each irradiated with 400 rads of radiation and inoculated with lung CA CRL5891 at 3×10,000,000 cells per mouse. Interventional treatment was identical to the first study as above.
# The subjects were followed up for 120 days. In the Control group, eight of ten subjects died. Two of the surviving mice developed a large tumor.
# [2] = test system: human prostate tumor cell line; assay: Nude mouse model inoculated with human prostate tumor cell line; racemic, L- and D-GGCI compared; type: in vivo, nude mice
# Description: Relative activities of the exemplary enantiomeric GGCI compounds of this invention were compared. Conjugates of benzaldehyde, salicylaldehyde and para-methoxybenzaldehyde were prepared, using either enantiomeric L- or D-penicillamine as the second reactant. The efficacy of racemic BA-GGCI, racemic SA-GGCI and racemic PMB-GGCI in the treatment of human prostate cancer was tested using the nude mouse model as in Example 2, except that the nude mice were inoculated intravenously with a human prostate tumor cell line. One group of the inoculated mice was treated with the racemic BA-GGCI and a control group of the inoculated mice was treated with placebo, and the effects of treatment with GGCI and placebo were compared. Response to treatment was monitored by changes in [PSA].
# The exemplary L- and D-enantiomer BA-GGCIs were prepared in accordance with synthetic scheme of FIG. 1 using L-penicillamine.
# [3] = test system: patients with advanced prostate cancer; assay: Compassionate use treatment of patients with advanced prostate cancer; type: in vivo, human
# Description: Two patients with advanced prostate cancer were treated under a compassionate use program with an exemplary GGCI
# Racemic BA-GGCI was administered to two human subjects who were receiving hormonal therapy for 12 and 14 months respectively.
# At the onset of the GGCI treatment, both patients were bedridden with PSA (Prostate Specific Antigen) values of 340 and 180 ng/mL respectively. Both subjects presented with multiple bone metastases, and agonizing pains. The GGCI treatment protocol comprised 600 mg of GGCI capsule 3 times/day (formulated for human based on less then 5% of the LD50 toxicity on mice).
# [4] = test system: Human Melanoma cells 624; assay: Survival of nude mice inoculated with human melanoma; type: in vivo, athymic nude mice; conditions: for survival of treated group: nude mice, 400 rads, Human Melanoma cells 624, 100 mg/kg I.P. every day, six days a week, followed up for 120 days, control: ten out of ten died
# Description: In order to examine the survival rate of athymic nude mice, inoculated intravenously with tumors, one group of the inoculated mice was treated with BA-GGCI, and a second group of the inoculated mice were treated with placebo, and the effects of treatment with BA-GGCI and placebo were compared.
# Two subgroups of nude mice were examined: a control group and an experimental group. The groups included a total of twenty athymic nude mice (ten control and ten experimental), each irradiated with 400 rads of radiation and inoculated with Human Melanoma cells 624 at 3.0×10,000,000 cells per mouse. Treatment of the experimental group with racemic BA-GGCI commenced at 24 hours after the inoculation. The treatment was administered intraperitoneally (I.P.) at a dose of 100 mg/kg in 2 cc of saline every day, six days a week. The control group received placebo (2 cc saline IP), every day, six days a week.
# The subjects were followed up for 120 days.
# [5] = test system: tumor; assay: Anti-cancer activity of (L) versus (D) conformation compounds in animal models and compassionate use (summary statement); type: in vivo; conditions: animal models and compassionate use treatment of human subjects
# Source text: However, in contrast to D-penicillamine, the L-penicillamine stereoisomer is toxic, and has not been approved as a drug. […] Moreover, when the inventors compared the relative activities, the (L) conformation compounds of this disclosure appeared to be at least 2× as active as the corresponding racemate, due to the improved stereospecificity in the enzymatic catalysis of 5-oxoproline by 5 oxoprolinase.
# [6] = test system: Balb C Mice; assay: LD50 toxicity study on Balb C mice; type: in vivo
# Description: (§1) LD50 data was measured, and exemplary gamma-glutamyl cycle inhibitor's toxicity study was conducted on Balb C Mice. A conjugate of L-penicillamine and methyl glyoxal (MGPA) was adminstered at about 4500 mg/kg ip, 5000 mg/kg oral. A conjugate of L-penicillamine and para-methoxyphenyl (PMPA) was administered at 5250 mg/kg ip, 5500 mg/kg oral; and a conjugate of L-penicillamine and citronellal (CNPA) was administered at 3250 mg/kg ip, 4500 mg/kg oral.
# [7] = test system: B6C3F1 Mice; assay: LD50 determination in B6C3F1 mice; type: in vivo; design: 1/10 LD50: unit: mg/kg/inj
# Source text: Summary of LD50 Determination with a conjugate of L-penicillamine and salicylaldehyde (L-SAPA), a conjugate of L-penicillamine and benzaldehyde (L-BAPA), a conjugate of L-penicillamine and pyruvic aldehyde (L-PAPA) and a conjugate of L-penicillamine and glutaric dialdehyde (L-GAPA) in B6C3F1 Mice.
# [8] = test system: CD1 mice; assay: Sub-acute (4 weeks) per os (via food) toxicity to mice; type: in vivo
# Source text: Sample: L-Thiazolidine-di-methyl-carboxylic acid: “L-BAPA” powder was mixed in the food (pellets).
# Subjects were examined for: Sub-acute (4 weeks) per os (via food) toxicity of L-BAPA to mice.
# Forty females and forty male CD1 mice, 8-10 weeks old, were housed 5 per cage (milipore filtered top cages), half of them used as controls, receiving normal mouse diet (prepared at the breeding center food plant). The other half were the experimental group and received same food composition in which 0.6 g L-Thiazolidine-di-methyl-carboxylic acid in kg food was mixed and pelleted in smaller pellet machine. This food contains 12% humidity, as compared with 6% humidity of the control diet. The animals were fed ad libitum. All animals were weighed weekly and food consumption was recorded. Possible clinical or pharmaceutical effects were checked daily. After 4 weeks, the mice were put into metabolic cages for 24 hours, their urine was collected, and then the animals were bled before sacrificing. The blood was analyzed and bone marrow smears were prepared for differential count.
# The reason for putting […] in a group was to assure enough blood and urine for analysis, so all the blood clinical chemistry and urinalysis are of a pool of 2 mice each. All other results are individual results, performed randomly on one of each 2 mouse group.
# The following organs were examined histologically: adrenals, brain, eye, gonads, heart, intestines (colon, caecum, duodenum, ileum, rectum) kidneys, liver, lungs, lymph nodes (mesenterial and inguinal) mammary gland, mediastinum, esophagus, pancreas, pituitary, salivary gland, skeletal muscle, skin, spinal cord, spleen, stomach, thyroid, urinary bladder and uterus. The organs were fixed in Bouin's solution and stained with hematoxylin-eosin-phosphomolybdic-acid light green stain. Weights for the adrenals, gonads, kidneys, liver and pituitary were recorded and the ratio organ weight/body weight was calculated.
# The following lab studies were performed:
# Hematology: Hemoglobin, hematocrit, erythrocyte count, leukocyte count.
# Clinical chemistry: alkaline phosphatase, blood urea nitrogen, serum glutamic, pyruvic transaminase, blood sugar.
# Urinalysis: appearance occult blood, protein Ph, bilirubin, ketones, glucose, nitrites, urobilinogen.
# [9] = LD50 toxicity study on Balb C mice; type: in vivo; conditions: mouse, in vivo
# Description: as §1
# [10] = subject #1, 600 mg capsule 3 times/day
# [11] = subject #2, 600 mg capsule 3 times/day
# [12] = CD1 mice, 0.6 g in kg food, 4 weeks
# [13] = CD1 mice, 0.6 g in kg food, 4 weeks, versus control
smiles,measurement,setting,value
CC1(C)SC(c2ccccc2)NC1C(=O)O (racemic) [racemic BA-GGCI],detectable tumor in treated group,"[1]; lung CA CRL5891 nude mice, 100 mg/kg I.P., 120 days",none with detectable tumor
same,survival of treated group,[1],all mice remained alive
same,survival rate versus control group,"[2]; nude mice inoculated intravenously with human prostate tumor cell line, treatment as in Example 2, response monitored by [PSA]",significantly higher survival rate than the control group
same,PSA value after treatment (dropped from 340),[3]; [10],18 units
same,time to return to regular activities,[3]; [10],within a month
same,time until pain level subsided,[3]; [10],≤ 10 days
same,PSA level after continued drop,"[3]; subject #1, 600 mg capsule 3 times/day, later",5 units
same,time subject felt normal,"[3]; subject #1, before they eventually passed away",28 months
same,bone CAT scan,"[3]; subject #1, multiple bone metastases at onset",substantial remission
same,"survival after initiation of the treatment (still alive, feeling well)",[3]; subject #2,≥ 36 months
same,PSA after treatment (180 ng/mL at onset),[3]; [11],16 units
same,time to return to normal activities,[3]; [11],2-3 weeks
same,time until pains subsided,[3]; [11],7 days
same,tumor development in treated group,"[4]; Human Melanoma cells 624 nude mice, 100 mg/kg I.P., after stopping the treatment",Two of the subjects developed small tumors after stopping the treatment
same,survival of treated group,[4],ten out of ten subjects in the treated group were all alive
"COc1ccc(C2N[C@@H](C(=O)O)C(C)(C)S2)cc1 (mixture of isomers) [racemic PMB-GGCI, 2-imino-3-p-methoxybenzyl-4 sulfanyl-5 dimethyl 1-carboxylic acid]",survival of treated group,[1],results similar to those obtained with racemic BA-GGCI
same,survival of treated group,[4],results similar to those obtained with racemic BA-GGCI
CC1(C)SC(c2ccccc2O)NC1C(=O)O (racemic) [racemic SA-GGCI],survival of treated group,[1],results similar to those obtained with racemic BA-GGCI
same,subjective well-being of patients,"[3]; human patients, compared with BA-GGCI",subjectively felt better than patients to whom BA-GGCI was administered
same,overall treatment result in patients,"[3]; human patients, compared with BA-GGCI treatment",results similar to those obtained with B-GGCI treatment
same,survival of treated group,[4],results similar to those obtained with racemic BA-GGCI
COc1ccc(C2NC(C(=O)O)C(C)(C)S2)cc1 (stereo not drawn) [(D) stereoisomer],anti-tumor / anti-cancer activity,[5],no activity
CC(C)=CCCC(C)CC1NC(C(=O)O)C(C)(C)S1 (stereo not drawn) [CNPA],LD50,[6]; ip,3250 mg/kg
same,LD50,[6]; oral,4500 mg/kg
CC1(C)SC(c2ccccc2)N[C@H]1C(=O)O (stereo partly drawn) [L-BAPA],1/10 LD50,"[7]; Schedule Day 1, Route ip",88.4
same,Calculated LD50 mg/kg/inj.,"[7]; Schedule Day 1, Route ip",884 mg/kg/inj.
same,1/10 LD50,"[7]; Schedule Day 1, Route oral",355
same,Calculated LD50 mg/kg/inj.,"[7]; Schedule Day 1, Route oral",3553 mg/kg/inj.
same,1/10 LD50,"[7]; Schedule Day 1-5, Route ip",88.4
same,Calculated LD50 mg/kg/inj.,"[7]; Schedule Day 1-5, Route ip",884 mg/kg/inj.
same,1/10 LD50,"[7]; Schedule Day 1-5, Route oral",216
same,Calculated LD50 mg/kg/inj.,"[7]; Schedule Day 1-5, Route oral",2158 mg/kg/inj.
same,"clinical symptoms, daily observation","[8]; CD1 mice, 0.6 g in kg food ad libitum, 4 weeks",no clinical or other effect could be observed
same,Blood cell analysis and differential count,[8]; [12],All values are within the normal range and no significant difference between the control and the experimental groups is noted
same,Bone marrow differential count,[8]; [12],All values are within the normal range and no significant difference between the control and the experimental groups is noted
same,Histopathology,"[8]; CD1 mice, 0.6 g in kg food, 4 weeks, 10 male and 10 females per group, thirty-one organs",No other pathological or other changes could be observed
same,Food consumption,"[8]; CD1 mice, 0.6 g in kg food, 4 weeks, experimental food 12% humidity versus 6% control",more L-BAPA containing experimental food was consumed by the experimental group then normal food by the control
same,Blood clinical chemistry and urinalysis,"[8]; CD1 mice, 0.6 g in kg food, 4 weeks, pool of 2 mice each",All values are within the normal range and no significant difference between the control and the experimental groups is noted
same,Body weight,[8]; [13],no significant difference between the experimental group and the control group
same,Organ weight and ratio organ/body weight,[8]; [13],No significant difference between the experimental and the control group is noted
same,clinical or pathological changes (conclusion),"[8]; mixed in the food (0.6 g in kg food), fed ad libitum for 4 weeks",does not produce any clinical or pathological changes to mice
same,activity compared to the corresponding racemate,[2]; (L) compound versus racemic mixture,at least twice as active as the corresponding racemic mixture
CC1(C)SC(CCCC=O)N[C@H]1C(=O)O (stereo partly drawn) [L-GAPA],1/10 LD50,"[7]; Schedule Day 1, Route ip",375
same,Calculated LD50 mg/kg/inj.,"[7]; Schedule Day 1, Route ip",3749 mg/kg/inj.
same,1/10 LD50,"[7]; Schedule Day 1, Route oral",500
same,Calculated LD50 mg/kg/inj.,"[7]; Schedule Day 1, Route oral",>5000 mg/kg/inj.
same,1/10 LD50,"[7]; Schedule Day 1-5, Route ip",169
same,Calculated LD50 mg/kg/inj.,"[7]; Schedule Day 1-5, Route ip",1690 mg/kg/inj.
same,1/10 LD50,"[7]; Schedule Day 1-5, Route oral",500
same,Calculated LD50 mg/kg/inj.,"[7]; Schedule Day 1-5, Route oral",>5000 mg/kg/inj.
CC(=O)C1N[C@@H](C(=O)O)C(C)(C)S1 (stereo partly drawn) [L-PAPA],1/10 LD50,"[7]; Schedule Day 1, Route ip",500
same,Calculated LD50 mg/kg/inj.,"[7]; Schedule Day 1, Route ip",>5000 mg/kg/inj.
same,1/10 LD50,"[7]; Schedule Day 1, Route oral",500
same,Calculated LD50 mg/kg/inj.,"[7]; Schedule Day 1, Route oral",>5000 mg/kg/inj.
same,1/10 LD50,"[7]; Schedule Day 1-5, Route ip",277
same,Calculated LD50 mg/kg/inj.,"[7]; Schedule Day 1-5, Route ip",2771 mg/kg/inj.
same,1/10 LD50,"[7]; Schedule Day 1-5, Route oral",500
same,Calculated LD50 mg/kg/inj.,"[7]; Schedule Day 1-5, Route oral",>5000 mg/kg/inj.
CC(=O)C1NC(C(=O)O)C(C)(C)S1 (stereo not drawn) [MGPA],LD50,[6]; ip,about 4500 mg/kg
same,LD50,[6]; oral,5000 mg/kg
COc1ccc(C2N[C@@H](C(=O)O)C(C)(C)S2)cc1 (stereo partly drawn) [PMPA],LD50,"[9]; 5250 mg/kg, ip",5250 mg/kg
same,LD50,"[9]; 5500 mg/kg, oral",5500 mg/kg
same,anti-tumor / anti-cancer activity,[5],potent anti-tumor activity
